Data: patent US11878965B2, “Inhibitors of peptidylarginine deiminases” (Gilead Sciences, Inc., priority 2020, dated 2024)

Molecular target: human PAD4 (Homo sapiens (Human), UniProt Q9UM07)
Experiment: In Vitro PAD4 BAEE Biochemical Assay
Conditions: human PAD4, BAEE substrate; 5 nM PAD4, 2 mM calcium chloride, 3 mM BAEE; geometric mean of multiple experiments
In short: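 Deimination of BAEE substrate (3 mM) measured as ammonia via o-phthalaldehyde–DTT isoindole fluorescence, 405/535 nm. Tag-free bacterially expressed human PAD4 at 5 nM with 2 mM calcium chloride, pH 7.6 MOPS buffer, 30 min compound preincubation then 2 h reaction, both at 25 °C.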

Chain of human PAD4 (Q9UM07 2-663): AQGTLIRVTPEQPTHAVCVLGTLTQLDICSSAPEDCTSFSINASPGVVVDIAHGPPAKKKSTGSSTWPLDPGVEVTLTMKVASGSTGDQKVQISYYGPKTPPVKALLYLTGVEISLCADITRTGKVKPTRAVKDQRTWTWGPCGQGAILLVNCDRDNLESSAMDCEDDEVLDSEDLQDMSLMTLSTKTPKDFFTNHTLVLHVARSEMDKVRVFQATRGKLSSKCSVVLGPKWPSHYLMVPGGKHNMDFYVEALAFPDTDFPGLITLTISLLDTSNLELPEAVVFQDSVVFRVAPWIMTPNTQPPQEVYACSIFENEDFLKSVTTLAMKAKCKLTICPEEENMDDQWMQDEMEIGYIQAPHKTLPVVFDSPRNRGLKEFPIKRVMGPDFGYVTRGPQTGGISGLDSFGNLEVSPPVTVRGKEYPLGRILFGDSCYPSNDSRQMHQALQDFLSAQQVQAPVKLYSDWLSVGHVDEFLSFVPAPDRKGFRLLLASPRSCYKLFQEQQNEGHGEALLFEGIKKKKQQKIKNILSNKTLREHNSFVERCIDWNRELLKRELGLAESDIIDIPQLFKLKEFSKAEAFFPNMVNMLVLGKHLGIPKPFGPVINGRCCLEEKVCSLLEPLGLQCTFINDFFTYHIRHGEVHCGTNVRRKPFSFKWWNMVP

SMILES | IC50
COc1cc(C(=O)N2[C@H]3CC[C@@H]2[C@H](N)C3)cc2nc(-c3cc4ccc([C@@H](C)NC(=O)c5cnn(C)c5)cc4n3CC3CC3)n(C)c12 [Example 135, N-((R)-1-(2-(5-((1R,2R,4S)-2-amino-7-azabicyclo[2.2.1]heptane-7-carbonyl)-7-methoxy-1-methyl-1H-benzo[d]imidazol-2-yl)-1-(cyclopropylmethyl)-1H-indol-6-yl)ethyl)-1-methyl-1H-pyrazole-4-carboxamide] | 13 nM
COc1cc(C(=O)N2[C@H]3CC[C@@H]2[C@H](N)C3)cc2nc(-c3cc4ccc([C@@H](C)NC(=O)c5ccccc5)cc4n3CC3CC3)n(C)c12 [Example 136, N-((R)-1-(2-(5-((1R,2R,4S)-2-amino-7-azabicyclo[2.2.1]heptane-7-carbonyl)-7-methoxy-1-methyl-1H-benzo[d]imidazol-2-yl)-1-(cyclopropylmethyl)-1H-indol-6-yl)ethyl)benzamide] | 27.6 nM
COc1cc(C(=O)N2CCC[C@@H](N)C2)cc2nc(-c3cc4ccc([C@@H](C)NC(=O)c5ccccc5)cc4n3CC3CC3)n(C)c12 [Example 137, N-((R)-1-(2-(5-((R)-3-aminopiperidine-1-carbonyl)-7-methoxy-1-methyl-1H-benzo[d]imidazol-2-yl)-1-(cyclopropylmethyl)-1H-indol-6-yl)ethyl)benzamide] | 37.2 nM
COc1cc(C(=O)N2[C@H]3CC[C@@H]2[C@H](N)C3)cc2nc(-c3cc4ccc([C@@H](C)NC(=O)c5cnc(C)o5)cc4n3CC3CC3)n(C)c12 [Example 138, N-((R)-1-(2-(5-((1R,2R,4S)-2-amino-7-azabicyclo[2.2.1]heptane-7-carbonyl)-7-methoxy-1-methyl-1H-benzo[d]imidazol-2-yl)-1-(cyclopropylmethyl)-1H-indol-6-yl)ethyl)-2-methyloxazole-5-carboxamide] | 27.6 nM
COc1cc(C(=O)N2[C@H]3CC[C@@H]2[C@H](N)C3)cc2nc(-c3cc4ccc([C@@H](C)NC(=O)c5cnn(C(F)F)c5)cc4n3CC3CC3)n(C)c12 [Example 139, N-((R)-1-(2-(5-((1R,2R,4S)-2-amino-7-azabicyclo[2.2.1]heptane-7-carbonyl)-7-methoxy-1-methyl-1H-benzo[d]imidazol-2-yl)-1-(cyclopropylmethyl)-1H-indol-6-yl)ethyl)-1-(difluoromethyl)-1H-pyrazole-4-carboxamide] | 28.9 nM
COc1cc(C(=O)N2[C@H]3CC[C@@H]2[C@H](N)C3)cc2nc(-c3cc4ccc([C@@H](C)NC(=O)C(C)(C)OC)cc4n3CC3CC3)n(C)c12 [Example 140, N-((R)-1-(2-(5-((1R,2R,4S)-2-amino-7-azabicyclo[2.2.1]heptane-7-carbonyl)-7-methoxy-1-methyl-1H-benzo[d]imidazol-2-yl)-1-(cyclopropylmethyl)-1H-indol-6-yl)ethyl)-2-methoxy-2-methylpropanamide] | 26.1 nM
COc1cc(C(=O)N2[C@H]3CC[C@@H]2[C@H](N)C3)cc2nc(-c3cc4ccc([C@@H](C)NC(=O)C5(OC)CCC5)cc4n3CC3CC3)n(C)c12 [Example 141, N-((R)-1-(2-(5-((1R,2R,4S)-2-amino-7-azabicyclo[2.2.1]heptane-7-carbonyl)-7-methoxy-1-methyl-1H-benzo[d]imidazol-2-yl)-1-(cyclopropylmethyl)-1H-indol-6-yl)ethyl)-1-methoxycyclobutane-1-carboxamide] | 63.3 nM
COc1cc(C(=O)N2[C@H]3CC[C@@H]2[C@H](N)C3)cc2nc(-c3cc4ccc([C@@H](C)NC(=O)C5(OC)CC5)cc4n3CC3CC3)n(C)c12 [Example 142, N-((R)-1-(2-(5-((1R,2R,4S)-2-amino-7-azabicyclo[2.2.1]heptane-7-carbonyl)-7-methoxy-1-methyl-1H-benzo[d]imidazol-2-yl)-1-(cyclopropylmethyl)-1H-indol-6-yl)ethyl)-1-methoxycyclopropane-1-carboxamide] | 44.5 nM
COc1cc(C(=O)N2CCC[C@@H](N)C2)cc2nc(-c3cc4ccc([C@@H](C)NC(=O)C56CC(F)(C5)C6)c(F)c4n3CC3CC3)n(C)c12 [Example 143, N-((R)-1-(2-(5-((R)-3-aminopiperidine-1-carbonyl)-7-methoxy-1-methyl-1H-benzo[d]imidazol-2-yl)-1-(cyclopropylmethyl)-7-fluoro-1H-indol-6-yl)ethyl)-3-fluorobicyclo[1.1.1]pentane-1-carboxamide] | 502 nM
COc1cc(C(=O)N2CCC[C@@H](N)C2)cc2nc(-c3cc4cc(F)c([C@@H](C)NC(=O)C56CC(F)(C5)C6)cc4n3CC3CC3)n(C)c12 [Example 145, N-((R)-1-(2-(5-((R)-3-aminopiperidine-1-carbonyl)-7-methoxy-1-methyl-1H-benzo[d]imidazol-2-yl)-1-(cyclopropylmethyl)-5-fluoro-1H-indol-6-yl)ethyl)-3-fluorobicyclo[1.1.1]pentane-1-carboxamide] | 62.8 nM
COc1cc(C(=O)N2[C@H]3CC[C@@H]2[C@H](N)C3)cc2nc(-c3cc4cc(F)c(CCNC(=O)C56CC(F)(C5)C6)cc4n3CC3CC3)n(C)c12 [Example 146, N-((R)-2-(2-(5-((1R,2R,4S)-2-amino-7-azabicyclo[2.2.1]heptane-7-carbonyl)-7-methoxy-1-methyl-1H-benzo[d]imidazol-2-yl)-1-(cyclopropylmethyl)-5-fluoro-1H-indol-6-yl)ethyl)-3-fluorobicyclo[1.1.1]pentane-1-carboxamide] | 45.8 nM
COc1cc(C(=O)N2[C@H]3CC[C@@H]2[C@H](N)C3)cc2nc(-c3cc4ccc([C@@H](C)NC(=O)C5(OC)CC5)cc4n3CC3CC3)n(C3CC3)c12 [Example 147, N-((R)-1-(2-(5-((1R,2R,4S)-2-amino-7-azabicyclo[2.2.1]heptane-7-carbonyl)-1-cyclopropyl-7-methoxy-1H-benzo[d]imidazol-2-yl)-1-(cyclopropylmethyl)-1H-indol-6-yl)ethyl)-1-methoxycyclopropane-1-carboxamide] | 78.9 nM
COc1cc(C(=O)N2[C@H]3CC[C@@H]2[C@H](N)C3)cc2nc(-c3cc4ccc([C@@H](C)NC(=O)c5c(F)cccc5F)cc4n3CC3CC3)n(C3CC3)c12 [Example 148, N-((R)-1-(2-(5-((1R,2R,4S)-2-amino-7-azabicyclo[2.2.1]heptane-7-carbonyl)-1-cyclopropyl-7-methoxy-1H-benzo[d]imidazol-2-yl)-1-(cyclopropylmethyl)-1H-indol-6-yl)ethyl)-2,6-difluorobenzamide] | 123 nM
COc1cccc(F)c1C(=O)N[C@H](C)c1ccc2cc(-c3nc4cc(C(=O)N5[C@H]6CC[C@@H]5[C@H](N)C6)cc(OC)c4n3C3CC3)n(CC3CC3)c2c1 [Example 149, N-((R)-1-(2-(5-((1R,2R,4S)-2-amino-7-azabicyclo[2.2.1]heptane-7-carbonyl)-1-cyclopropyl-7-methoxy-1H-benzo[d]imidazol-2-yl)-1-(cyclopropylmethyl)-1H-indol-6-yl)ethyl)-2-fluoro-6-methoxybenzamide] | 95.4 nM
COc1cc(C(=O)N2CCC[C@@H](N)C2)cc2nc(-c3cc4cc(F)c([C@@H](C)NC(=O)c5cnn(C)c5)cc4n3CC3CC3)n(C)c12 [Example 150, N-((R)-1-(2-(5-((R)-3-aminopiperidine-1-carbonyl)-7-methoxy-1-methyl-1H-benzo[d]imidazol-2-yl)-1-(cyclopropylmethyl)-5-fluoro-1H-indol-6-yl)ethyl)-1-methyl-1H-pyrazole-4-carboxamide] | 116 nM
COc1cc(C(=O)N2CCC[C@@H](N)C2)cc2nc(-c3cc4cc(F)c([C@@H](C)NC(=O)c5cnn(C(F)F)c5)cc4n3CC3CC3)n(C)c12 [Example 151, N-((R)-1-(2-(5-((R)-3-aminopiperidine-1-carbonyl)-7-methoxy-1-methyl-1H-benzo[d]imidazol-2-yl)-1-(cyclopropylmethyl)-5-fluoro-1H-indol-6-yl)ethyl)-1-(difluoromethyl)-1H-pyrazole-4-carboxamide] | 102 nM
COc1cc(C(=O)N2[C@H]3CC[C@@H]2[C@H](N)C3)cc2nc(-c3cc4ccc([C@@H](C)NC(=O)C5CC5(F)F)cc4n3CC3CC3)n(C3CC3)c12 (stereo partly drawn) [Example 152, N-((R)-1-(2-(5-((1R,2R,4S)-2-amino-7-azabicyclo[2.2.1]heptane-7-carbonyl)-1-cyclopropyl-7-methoxy-1H-benzo[d]imidazol-2-yl)-1-(cyclopropylmethyl)-1H-indol-6-yl)ethyl)-2,2-difluorocyclopropane-1-carboxamide] | 63 nM
COc1cc(C(=O)N2CCC[C@@H](N)C2)cc2nc(-c3cc4ccc([C@@H](C)NC(=O)C5CC5(F)F)cc4n3CC3CC3)n(C3CC3)c12 (stereo partly drawn) [Example 153, N-((R)-1-(2-(5-((R)-3-aminopiperidine-1-carbonyl)-1-cyclopropyl-7-methoxy-1H-benzo[d]imidazol-2-yl)-1-(cyclopropylmethyl)-1H-indol-6-yl)ethyl)-2,2-difluorocyclopropane-1-carboxamide] | 102 nM
COc1cc(C(=O)N2C[C@H](N)CCN2C)cc2nc(-c3cc4ccc([C@@H](C)NC(=O)c5ccccc5)nc4n3CC3CC3)n(C)c12 [Example 154, N-((R)-1-(2-(5-((R)-5-amino-2-methylhexahydropyridazine-1-carbonyl)-7-methoxy-1-methyl-1H-benzo[d]imidazol-2-yl)-1-(cyclopropylmethyl)-1H-pyrrolo[2,3-b]pyridin-6-yl)ethyl)benzamide] | 89.7 nM
COc1cc(C(=O)N2C[C@H](N)CCN2C)cc2nc(-c3cc4ccc([C@@H](C)NC(=O)c5ccc(F)cc5)nc4n3CC3CC3)n(C)c12 [Example 155, N-((R)-1-(2-(5-((R)-5-amino-2-methylhexahydropyridazine-1-carbonyl)-7-methoxy-1-methyl-1H-benzo[d]imidazol-2-yl)-1-(cyclopropylmethyl)-1H-pyrrolo[2,3-b]pyridin-6-yl)ethyl)-4-fluorobenzamide] | 165 nM
